Data set [1] in a line: Stability of steroid C-21 esters, carbonates and carbamates in rat lung homogenate. The following applies: for Mean [Parent] (nM) at 2 hrs, 37° C.: parent compound; for Mean % compound remaining at 2 hrs, 37° C.: 900 nM, n=3.
Experimental: Lungs from Fischer 344 rats were obtained fresh by overnight delivery at 4° C. from BioReclamation Inc. (Hicksville, N.Y.). Lungs were weighed and homogenized in a 1:3 w/v ratio with sterile phosphate buffered saline (PBS, 10 mM, pH 7.4) in glass vials on ice. After centrifugation at 3,000×g for 10 min at 4° C. the supernatant was decanted into sterile conical tubes and placed on ice. The total protein content of the supernatant was determined by the bicinchoninic acid (BCA) method (Pierce Biotechnology, Rockford, Ill.), using bovine serum albumin (BSA) as the standard. Lung homogenates were prepared to a final concentration of 1 mg total protein/mL in 10 mM PBS, pH 7.4.
Heat-inactivation was achieved by incubation at 80° C. for 30 min, after which the homogenate was allowed to cool to room temperature, stored overnight at 4° C. The homogenate was used for the assay and standard curve preparations. Before use, each homogenate preparation was equilibrated for 15 min in a 37° C. water bath. […] DMSO (2.7 uL) added to 3 mL of temperature-equilibrated homogenate served as a control. Aliquots (100 uL) of homogenate+compound were added to 400 μL quenching solution consisting of 100% HPLC-grade acetonitrile+500 ng/mL glyburide for the zero time point (n=3 for each time point).
The glyburide served as an internal LC/MS/MS standard. The remainder of each drug+homogenate solution was aliquoted into a 96-well tissue culture plates. After an additional 30 min and 120 min incubation at 37° C., 100 μL aliquots were added to 400 μL quenching solution. Denatured proteins in the quenching solution were separated by centrifugation at 3000×g for 2 min at 4° C., and 160 μL of the supernatants were transferred to new 96-well plate for analysis by LC/MS/MS. Collection plates were covered with plastic film and were kept on ice. For storage, covered plates were and kept stored at −80° C. until further use.
An aliquot of 50 μL of each sample was diluted with 50 μL of water containing internal standard at 4° C. The diluted samples were then centrifuged for 20 minutes at 3000 rpm at 4° C. An aliquot of 20 μL of the solution was injected into the TSQ Ultra Quantum.
LC/MS/MS system. The compounds were separated by HPLC using a HyPurity C18 HPLC column (30×2.1 mm, 5μ) from ThermoHypersil. A Multiplex LX-2 HPLC system (Cohesive Technologies, Franklin, Mass.) with two identical Agilent 1100 series binary pumps (P/N G1312A) were used for elution and separation. Samples were maintained at 4° C. in an HTS Pal autosampler (LEAP Technologies, Carrboro, N.C.) in order to reduce any potential spontaneous hydrolysis of the compounds before injection onto the HPLC. The analytes were eluted using the following mobile phases; Mobile phase A contained 1% acetonitrile in 10 mM ammonium formate aqueous solution with 1% formic acid. Mobile phase B contained 80% acetonitrile in 10 mM ammonium formate with 1% formic acid. The HPLC elution program used to elute the analytes was as follows:
The samples were further analyzed by tandem mass spectrometry using a TSQ Quantum Ultra triple quadrupole mass spectrometer (Thermo Finnigan, San Jose, Calif.) using a selective reaction monitoring (SRM) scan type. The mass spectrometry parameters used were as follows:
Nine-point standard curves for each test compound were prepared and analyzed in heat-inactivated lung homogenate. […] The data expressed in Table 2 represent the mean (n=3) percent remaining compound in both types of homogenate at 2 hours, 37° C.
Data set [2] is described as follows: Drug levels in plasma, BALF and lung after IT administration in the rat. The following applies: IT.
Experimental: Compounds of Examples 52 and 83 were formulated for intratracheal (IT) dosing in 10% EtOH, 90% Sterile Water, and dosed in male Sprague-Dawley rats at 3 mg/kg (Example 52) and 1 mg/kg (Example 83). Each dosing group consisted of 3 male, naïve purebred Sprague-Dawley rats. At dosing, the animals weighed ˜0.30 kg. The animals were fasted overnight prior to dose administration and up to 2 hr after dosing. The compounds were administered IT using a Penn Century Microsprayer (Model 1A-1B).
Blood samples were collected at 0.5, 2, and 4 hours post-dose. Each blood sample (0.5-0.6 mL per sample) was collected via the orbital sinus (following anesthesia for BAL procedure) into tubes containing EDTA anti-coagulant into containers surrounded by dry ice at 0.5, 2 and 4 hr (mean, n=6). Blood samples were stored at −20±5° C. until shipped for analysis.
The animals were anesthetized with an intramuscular (IM) injection of a ketamine/xylazine/acepromazine (80/10/2 mg/kg) cocktail at a dose volume of 1.1 mL/kg. A cannula (modified Bard® infant feeding tube) was inserted into the trachea. Warmed sterile saline was injected into the lungs. The lungs were gently massaged by palpation of the chest for approximately 45 seconds. The fluid (BALF) was recovered and placed on ice. The procedure was repeated two more times, and all three BALF samples pooled. The fluid was centrifuged under refrigerated conditions at 350 g for 10 minutes. The supernatant and cell pellet were collected and stored at approximately −70° C. until shipped for analysis.
Immediately following each BAL procedure, the lungs from each animal were removed, blotted dry, weighed, and stored frozen at −70° C. until shipped for analysis.
An LC/MS/MS method was used to measure the concentration of compound in plasma.
Add 3×w/v of 1×PBS buffer (90:10-PBS:ACN) to each lung tissue. Homogenize the sample w/Polytron (PT1200) and take 50 uL of supernatant and inject to LC/MSMS.
An aliquot of 50 μL of each plasma sample was treated with 100 mL of acetonitrile (ACN) containing internal standard. After the protein precipitation, an aliquot of 100 μL of the supernatant was transferred to a clean 96-well plate and mixed with 100 μL of water. An aliquot of 30 μL of the above solution was injected to the TSQ Ultra Quantum LC/MS/MS system.
A HyPurity C18 HPLC column (30×2.1 mm, 5μ) from ThermoHypersil (Part #: 22105-032130) was used. Mobile phase A contained 1% acetonitrile in 10 mM ammonium formate aqueous solution with 1% formic acid. Mobile phase B contained 80% acetonitrile in 10 mM ammonium formate with 1% formic acid. An Agilent 1100 series binary pump (P/N G1312A Bin Pump) was used for elution and separation. HTS Pal autosampler from LEAP Technologies, Carrboro, N.C. was used.
TSQ Quantum Ultra triple quadrupole mass spectrometer from Thermo Finnigan, San Jose, Calif. was used in selective reaction monitoring (SRM) operation mode, Tune file:
The mark [3] stands for this setting: Inactive (heat-inactivated) rat lung homogenate.

Structures are written as SMILES.

Regarding `CC(CN(C)C)OC(=O)OCC(=O)[C@@]12O[C@H](C3CCCCC3)O[C@@H]1C[C@H]1[C@@H]3CCC4=CC(=O)C=C[C@]4(C)[C@H]3[C@@H](O)C[C@@]12C` (stereo partly shown) [Example 28], the “Mean [Parent] (nM) at 2 hrs, 37° C.” value in data set [1] (Active homogenate) is 120 nM; in data set [1] (Inactive homogenate), 147 nM. Further, the “Mean % compound remaining at 2 hrs, 37° C.” value (from here on “Mean % compound remaining”) in data set [1] (Active rat lung homogenate) worked out at 45%; in data set [1] (setting [3]), 64%.
As for `C[C@]12C=CC(=O)C=C1CC[C@@H]1[C@@H]2[C@@H](O)C[C@@]2(C)[C@H]1C[C@H]1O[C@@H](C3CCCCC3)O[C@]12C(=O)COC(=O)c1cccnc1` [Example 29, Nicotinic acid [[11β,16α]-[[((R)-cyclohexylmethylene)bis(oxy)]-11-hydroxypregna-1,4-diene-3,20-dion-21-yl]]ester], the “Mean [Parent] (nM) at 2 hrs, 37° C.” value in data set [1] (Active homogenate) worked out at 2 nM; in data set [1] (Inactive homogenate) it was 130 nM. The “Mean % compound remaining” value is given as 1% in data set [1] (Active rat lung homogenate) and 72% in data set [1] (setting [3]).
On the same counts, the results for `CCN(CC)Cc1cccc(C(=O)OCC(=O)[C@@]23O[C@H](C4CCCCC4)O[C@@H]2C[C@H]2[C@@H]4CCC5=CC(=O)C=C[C@]5(C)[C@H]4[C@@H](O)C[C@@]23C)c1` [Example 31, 3-Diethylaminomethylbenzoic acid [[11β,16α]-[[((R)-cyclohexylmethylene)bis(oxy)]-11-hydroxypregna-1,4-diene-3,20-dion-21-yl]]ester] are 127 nM, 127 nM, 68% and 68%.
As for `CCN(CC)CC(=O)OCC(=O)[C@@]12O[C@H](C3CCCCC3)O[C@@H]1C[C@H]1[C@@H]3CCC4=CC(=O)C=C[C@]4(C)[C@H]3[C@@H](O)C[C@@]12C` [Example 32, 4-Diethylaminoacetic acid [[11β,16α]-[[((R)-cyclohexylmethylene)bis(oxy)]-11-hydroxypregna-1,4-diene-3,20-dion-21-yl]]ester], the “Mean [Parent] (nM) at 2 hrs, 37° C.” value in data set [1] (Active homogenate) stood at 1 nM; in data set [1] (Inactive homogenate) it was 119 nM. Also, the “Mean % compound remaining” value in data set [1] (Active rat lung homogenate) came out at 1%; in data set [1] (setting [3]) it was 61%.
On the same counts, the results for `C[C@]12C=CC(=O)C=C1CC[C@@H]1[C@@H]2[C@@H](O)C[C@@]2(C)[C@H]1C[C@H]1O[C@@H](C3CCCCC3)O[C@]12C(=O)COC(=O)/C=C/c1cccnc1` [Example 33, 3-(Pyridin-3-yl)acrylic acid [[11β,16a]-[[((R)-cyclohexylmethylene)bis(oxy)]-11-hydroxypregna-1,4-diene-3,20-dion-21-yl]]ester] are 4 nM, 124 nM, 3% and 78%.
The corresponding values for `C[C@]12C=CC(=O)C=C1CC[C@@H]1[C@@H]2[C@@H](O)C[C@@]2(C)[C@H]1C[C@H]1O[C@@H](C3CCCCC3)O[C@]12C(=O)COC(=O)CCc1cccnc1` [Example 34, 3-(Pyridin-3-yl)propionic acid [[11β,16α]-[[((R)-cyclohexylmethylene)bis(oxy)]-11-hydroxypregna-1,4-diene-3,20-dion-21-yl]]ester] are 1 nM, 159 nM, 0% and 73%.
Take `CN1CCC[C@H]1C(=O)OCC(=O)[C@@]12O[C@H](C3CCCCC3)O[C@@H]1C[C@H]1[C@@H]3CCC4=CC(=O)C=C[C@]4(C)[C@H]3[C@@H](O)C[C@@]12C` [Example 38, (S) 1-Methylpyrrolidinecarboxylic acid [[11β,16α]-[[((R)-cyclohexylmethylene)bis(oxy)]-11-hydroxypregna-1,4-diene-3,20-dion-21-yl]]ester]: the “Mean [Parent] (nM) at 2 hrs, 37° C.” value is 1 nM in data set [1] (Active homogenate) and 71 nM in data set [1] (Inactive homogenate). In addition, the “Mean % compound remaining” value in data set [1] (Active rat lung homogenate) came to 1%; in data set [1] (setting [3]), 40%.
As to `CN(C)CCNC(=O)OCC(=O)[C@@]12O[C@H](C3CCCCC3)O[C@@H]1C[C@H]1[C@@H]3CCC4=CC(=O)C=C[C@]4(C)[C@H]3[C@@H](O)C[C@@]12C` [Example 39, 2-Dimethylaminoethylcarbamic acid [[11β,16α]-[[((R)-cyclohexylmethylene)bis(oxy)]-11-hydroxypregna-1,4-diene-3,20-dion-21-yl]]ester], the “Mean [Parent] (nM) at 2 hrs, 37° C.” value in data set [1] (Active homogenate) is 186 nM; in data set [1] (Inactive homogenate) it was 162 nM. In addition, the “Mean % compound remaining” value in data set [1] (Active rat lung homogenate) was 92%; in data set [1] (setting [3]), 78%.
For the molecule `CN(C)CCN(C)C(=O)OCC(=O)[C@@]12O[C@H](C3CCCCC3)O[C@@H]1C[C@H]1[C@@H]3CCC4=CC(=O)C=C[C@]4(C)[C@H]3[C@@H](O)C[C@@]12C` [Example 40, 2-Dimethylaminoethyl(methyl)carbamic acid [[11β,16α]-[[((R) -cyclohexylmethylene)bis(oxy)]-11-hydroxypregna-1,4-diene-3,20-dion-21-yl]]ester], the entries for the “Mean [Parent] (nM) at 2 hrs, 37° C.” value in data set [1] (Active homogenate) and in data set [1] (Inactive homogenate) were 222 nM and 167 nM, respectively. For the same molecule, the entries for the “Mean % compound remaining” value in data set [1] (Active rat lung homogenate) and in data set [1] (setting [3]) were 83% and 78%, respectively.
Turning to `CN1CCN(C(=O)OCC(=O)[C@@]23O[C@H](C4CCCCC4)O[C@@H]2C[C@H]2[C@@H]4CCC5=CC(=O)C=C[C@]5(C)[C@H]4[C@@H](O)C[C@@]23C)CC1` [Example 41, 4-Methylpiperazinecarboxylic acid [[11β,16α]-[[((R)-cyclohexylmethylene)bis(oxy)]-11-hydroxypregna-1,4-diene-3,20-dion-21-yl]]ester], the “Mean [Parent] (nM) at 2 hrs, 37° C.” value worked out at 170 nM in data set [1] (Active homogenate) and 172 nM in data set [1] (Inactive homogenate). In addition, the “Mean % compound remaining” value turned out to be 68% in data set [1] (Active rat lung homogenate) and 78% in data set [1] (setting [3]).
Take `CC(C)[C@@H](N)C(=O)OCC(=O)[C@@]12O[C@H](C3CCCCC3)O[C@@H]1C[C@H]1[C@@H]3CCC4=CC(=O)C=C[C@]4(C)[C@H]3[C@@H](O)C[C@@]12C` [Example 50, Valine [[11β,16α]-[16,17-((R)-cyclohexylmethylene)bis(oxy)]-11-hydroxypregna-1,4-diene-3,20-dion-21-yl]ester]: the “Mean [Parent] (nM) at 2 hrs, 37° C.” value is given as 219 nM in data set [1] (Active homogenate) and 50 nM in data set [1] (Inactive homogenate). Moreover, the “Mean % compound remaining” value in data set [1] (Active rat lung homogenate) is reported as 45%; in data set [1] (setting [3]), 25%.
The corresponding values for `CC(C)[C@@H](NC(=O)c1cccnc1)C(=O)OCC(=O)[C@@]12O[C@H](C3CCCCC3)O[C@@H]1C[C@H]1[C@@H]3CCC4=CC(=O)C=C[C@]4(C)[C@H]3[C@@H](O)C[C@@]12C` [Example 51, N-(Pyridin-3-carbonyl)valine [[11β,16α]-[16,17-((R)-cyclohexylmethylene)bis(oxy)]-11-hydroxypregna-1,4-diene-3,20-dion-21-yl]ester] are 176 nM, 169 nM, 86% and 85%.
Regarding `CN(C)CC(=O)OCC(=O)[C@@]12O[C@H](C3CCCCC3)O[C@@H]1C[C@H]1[C@@H]3CCC4=CC(=O)C=C[C@]4(C)[C@H]3[C@@H](O)C[C@@]12C` [Example 75, N,N-Dimethylglycine [[11β,16α]-[16,17-((R)-cyclohexylmethlylene)bis(oxy)]-11-hydroxypregna-1,4-diene-3,20-dion-21-yl]ester], the “Mean [Parent] (nM) at 2 hrs, 37° C.” value was 1 nM in data set [1] (Active homogenate) and 101 nM in data set [1] (Inactive homogenate). In addition, the “Mean % compound remaining” value in data set [1] (Active rat lung homogenate) stood at 1%; in data set [1] (setting [3]), 55%.
As for `C[C@]12C=CC(=O)C=C1CC[C@@H]1[C@@H]2[C@@H](O)C[C@@]2(C)[C@H]1C[C@H]1O[C@@H](C3CCCCC3)O[C@]12C(=O)COC(=O)Cc1cccnc1` [Example 76, 3-Pyridineacetic acid [[11β,16α]-[16,17-((R)-cyclohexylmethylene)bis(oxy)]-11-hydroxypregna-1,4-diene-3,20-dion-21-yl]ester], the figures for the “Mean [Parent] (nM) at 2 hrs, 37° C.” value in data set [1] (Active homogenate) and in data set [1] (Inactive homogenate) were 4 nM and 142 nM, respectively. Moreover, the “Mean % compound remaining” value in data set [1] (Active rat lung homogenate) is given as 2%; in data set [1] (setting [3]) it was 83%.
Regarding `CC(C)[C@@H](C(=O)OCC(=O)[C@@]12O[C@H](C3CCCCC3)O[C@@H]1C[C@H]1[C@@H]3CCC4=CC(=O)C=C[C@]4(C)[C@H]3[C@@H](O)C[C@@]12C)N(C)C` [Example 79, N,N-dimethylvaline [[11β,16α]-[16,17-((R)-cyclohexylmethylene)bis(oxy)]-11-hydroxypregna-1,4-diene-3,20-dion-21-yl]ester], the “Mean [Parent] (nM) at 2 hrs, 37° C.” value was found to be 149 nM in data set [1] (Active homogenate) and 88 nM in data set [1] (Inactive homogenate). For the same molecule, the figures for the “Mean % compound remaining” value in data set [1] (Active rat lung homogenate) and in data set [1] (setting [3]) were 85% and 61%, respectively.
Take `CC[N+](CC)(CC(=O)OCC(=O)[C@@]12O[C@H](C3CCCCC3)O[C@@H]1C[C@H]1[C@@H]3CCC4=CC(=O)C=C[C@]4(C)[C@H]3[C@@H](O)C[C@@]12C)Cc1cc([C@@H](O)CNCCCCCCOCCCCc2ccccc2)ccc1OP(=O)(O)O.[Cl-]` [Example 83, [5-[1-(R)-hydroxy-2-[6-(4-phenylbutoxy)hexylamino]ethyl]-2-phosphonooxybenzyl]-(diethyl)-[[11β,16α]-[16,17-((R-cyclohexylmethylene)bis(oxy)]-11-hydroxypregna-1,4-diene-3,20-dion-21-oxy]-carbonylmethyl]ammonium chloride]: in data set [2], the “Metabolism in the lung following IT administration” value is “metabolized to Salmeterol and Desisobutyryl Ciclesonide in the lung”.

(Values after patent publication US20090318396A1, “CORTICOSTEROID LINKED BETA-AGONIST COMPOUNDS FOR USE IN THERAPY” (priority 2008, published 2009).)
